{"source": "paper PMC5803421", "about": "(International journal of pharmaceutics, 2017)", "system": "anesthetized acute SCI female rats (bladder pressure)", "assay": "Isovolumetric cystometry in anesthetized acute spinal cord injured rats", "assay_type": "in vivo, rat", "settings": "antagonist 1 mg/kg i.v. after ODT LMN-NKA (4.6 mg/kg)", "data": [{"smiles": "COC1(C[S@@+]([O-])c2ccccc2)CCN(CCc2c[nH]c3ccc(F)cc23)CC1", "note": "[GR 159898]", "values": [{"measurement": "effect on LMN-NKA ODT mediated increase in bladder pressure", "value": "readily reversed"}]}]}
